This is an account of results in paper PMC9393241, “Design, Synthesis, and Activity Assays of Cyclin-Dependent Kinase 1 Inhibitors With Flavone Scaffolds” (Frontiers in Chemistry, 2022).

Series [1] concerns the target T1, CDK1/cyclin B1 (Homo sapiens, UniProt P06493).
T1 construct: purchased
Kind of series: In vitro anti-CDK1/cyclin B1 kinase assay (Kinase-Glo luminescence). The class given is biochemical. To be noted: for Selectivity: CDK1 compared with CDK4 (CDK4 IC50 / CDK1 IC50); for inhibition at 20 µM: test compounds at 20 μM, read-out: Inhibition rates (%) CDK1. As to the method: (§1) In vitro anti-CDK1/cyclin B1 and CDK4/cyclin D3 assays were performed as described by the manufacturer. All test compounds and controls were dissolved in dimethyl sulfoxide (DMSO) to prepare 50 μM stock solutions. The stock solutions were diluted by double-distilled water and buffer to 40, 30, 20, and 10 μM working concentrations and stored at −20°C. Buffer, ATP, CDK substrate […], and distilled water were mixed, and then 25 μl of the mixture was added to a 96-well plate. Five microliters of 20 μM test compounds were sequentially added. CDK1/cyclin B1 was diluted to 1 ng/μl, and CDK4/cyclin D3 was diluted to 10 ng/μl using a buffer. Twenty microliters of the kinase solutions were incubated with the test compounds at 30°C for 45 min for CDK1/cyclin B1 and for 60 min for CDK4/cyclin D3. Finally, 50 μl of Kinase-Glo Max reagent was added to each well. The 96-well plate was covered with aluminum foil and incubated at room temperature for 15 min. Luminescence of the test compounds was measured with a microplate reader.
On the technique in general: Kinase-Glo measures the ATP left after a reaction by luminescence.

Series [2] has as its target T2, CDK4/cyclin D3 (Homo sapiens, UniProt P11802).
T2 construct: purchased
Description: In vitro anti-CDK4/cyclin D3 kinase assay (Kinase-Glo luminescence). In kind it is biochemical. To be noted: for inhibition at 20 µM: test compounds at 20 μM, read-out: Inhibition rates (%) CDK4. As to the method:
as §1

Series [3] deals with MCF-7 tumor cell. The arrangement: method as in Mou et al., 2021a. To be noted: concentration of 50 μg/ml; ref Mou et al., 2021a; cited from earlier work.
Series [4] deals with MCF-7 cells. Description: Cell growth inhibition assay (CCK-8), MCF-7. To be noted: Homo sapiens, MCF7, 24 h. In kind it is cell-based. Here is the method:
(§2) All test compounds and controls were dissolved in DMSO to prepare 250 μM stock solutions. The stock solutions were filtered through a […] and diluted into five concentrations (0.1–250 μM) with DMEM medium. MCF-7 and RAW264.7 cells were inoculated at a concentration of 5,000 cells/100 μl/well into a 96-well plate for 24 h at 37°C in a humidified atmosphere containing 5% CO2. After 24 h of culture, the primary medium was discarded and replaced with 100 μl of fresh DMEM medium containing different concentrations of test compounds in triplicate. After another 24 h of culture, the medium was replaced with 100 μl of fresh DMEM medium containing 10% (v/v) CCK-8 reagent in each well for 2 h at 37°C. The OD value was measured at a wavelength of 450 nm. Cell viability was determined using the following equation: Cell viability=(ODsample-ODnegative control/ODpositive control-ODnegative control)×100% where OD positive control is the absorbance at 450 nm obtained from untreated cells. OD negative control is the absorbance obtained from a blank well containing the cell culture medium and CCK-8 reagent. The IC50 values were calculated from the plot of activity vs. inhibitor concentration by using the GraphPad Prism 5 software ([Yu et al., 2020]).

Series [5] concerns RAW264.7 cells. Kind of series: Cell growth inhibition assay (CCK-8), RAW264.7. The class given is cell-based. To be noted: Mus musculus, 24 h. As to the method:
as §2

For series [6], the target named is CDK1/cyclin B kinase. Also on record: method as in Mou et al., 2021a. To be noted: ref Mou et al., 2021a; read-out: IC50 against CDK1/cyclin B kinase; cited from earlier work.

T2 sequence (P11802 whole entry): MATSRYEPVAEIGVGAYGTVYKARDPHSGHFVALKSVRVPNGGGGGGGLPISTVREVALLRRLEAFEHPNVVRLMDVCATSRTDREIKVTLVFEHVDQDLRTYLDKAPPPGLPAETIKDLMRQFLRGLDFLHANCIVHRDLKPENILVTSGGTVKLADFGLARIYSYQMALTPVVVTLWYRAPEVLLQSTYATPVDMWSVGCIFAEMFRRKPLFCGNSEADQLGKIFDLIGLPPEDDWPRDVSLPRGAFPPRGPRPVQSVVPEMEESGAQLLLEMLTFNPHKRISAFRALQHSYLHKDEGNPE
T2 sequence (P30281 whole entry partner): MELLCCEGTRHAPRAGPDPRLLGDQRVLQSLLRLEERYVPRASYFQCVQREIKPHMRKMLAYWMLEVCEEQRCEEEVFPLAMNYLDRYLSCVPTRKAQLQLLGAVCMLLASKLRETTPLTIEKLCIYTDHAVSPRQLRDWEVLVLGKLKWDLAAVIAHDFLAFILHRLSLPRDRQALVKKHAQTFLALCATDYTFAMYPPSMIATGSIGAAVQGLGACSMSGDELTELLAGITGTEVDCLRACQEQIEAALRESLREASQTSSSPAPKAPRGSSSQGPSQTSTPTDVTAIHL
T1 sequence (P06493 whole entry): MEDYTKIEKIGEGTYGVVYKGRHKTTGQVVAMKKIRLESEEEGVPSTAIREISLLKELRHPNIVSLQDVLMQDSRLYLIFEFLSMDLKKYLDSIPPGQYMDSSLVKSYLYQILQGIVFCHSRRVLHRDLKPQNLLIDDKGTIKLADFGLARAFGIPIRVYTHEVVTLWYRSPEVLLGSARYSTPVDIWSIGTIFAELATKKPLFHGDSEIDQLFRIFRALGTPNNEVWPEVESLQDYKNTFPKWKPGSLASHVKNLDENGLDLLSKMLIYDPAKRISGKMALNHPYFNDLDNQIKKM
T1 sequence (P14635 whole entry partner): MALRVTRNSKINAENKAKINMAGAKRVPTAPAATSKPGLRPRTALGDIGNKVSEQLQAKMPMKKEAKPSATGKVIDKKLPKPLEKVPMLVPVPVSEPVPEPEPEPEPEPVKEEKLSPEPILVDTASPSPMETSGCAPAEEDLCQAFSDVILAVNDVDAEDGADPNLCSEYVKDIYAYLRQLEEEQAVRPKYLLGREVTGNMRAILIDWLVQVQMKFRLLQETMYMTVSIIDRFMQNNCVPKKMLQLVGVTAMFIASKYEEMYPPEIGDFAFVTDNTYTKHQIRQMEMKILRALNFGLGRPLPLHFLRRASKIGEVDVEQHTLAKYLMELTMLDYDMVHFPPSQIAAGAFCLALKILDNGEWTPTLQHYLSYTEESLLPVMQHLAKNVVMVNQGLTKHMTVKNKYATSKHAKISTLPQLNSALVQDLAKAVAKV

As to `CCn1cnc2c(Nc3cccc(Cl)c3)nc(NC3CCCCC3N)nc21` (stereo not drawn) [CGP74514 A, reference compound], in series [1], the IC50 worked out at 10.9 ± 0.89 µM, the Selectivity is reported as 3.28 and the inhibition at 20 µM is 62.5 ± 0.05%. Besides, in series [2], the IC50 turned out to be 35.6 ± 1.02 µM and the inhibition at 20 µM was 48.52 ± 0.04%. For the same compound, the “inhibition rate against MCF-7 tumor cell proliferation” value (“inhibition rate” for short) in series [3] was 96.7%.
For the compound `O=c1cc(-c2ccccc2)oc2c(CN3CCOCC3)c3c(c(O)c12)OCCCCO3` [Compound 2a, 12-Hydroxy-7-(morpholinomethyl)-9-phenyl-2,3,4,5-tetrahydro-[1,4]dioxocino[2,3-g]chromen-11-one], the melting point was in the range of 213.8 to 214.3 °C. In addition, in series [1], the IC50 stood at 36.4 ± 1.12 µM and the inhibition at 20 µM is 33.05 ± 0.12%. In addition, the IC50 in series [4] is 79.7 ± 1.81 µM. In series [5], this compound came in with an IC50 of 2.54 ± 0.12 µM. Moreover, the “inhibition rate” value in series [3] is listed as 96.7%.
`O=c1cc(-c2ccccc2)oc2c(CN3CCOCC3)c(O)c(CN3CCOCC3)c(O)c12` [Compound 5c, 5,7-Dihydroxy-6,8-bis(morpholinomethyl)-2-phenyl-4H-chromen-4-one] gave a melting point of 199.2 to 199.6 °C. For the same compound, in series [1], the IC50 was determined as 39.6 ± 1.43 µM, the Selectivity came to 12.85 and the inhibition at 20 µM turned out to be 38.34 ± 0.08%. Moreover, the IC50 in series [4] was 76.9 ± 1.47 µM. This compound also displayed an IC50 in series [5] of 59.4 ± 1.23 µM. Further, in series [2], the IC50 stood at 508 ± 5.56 µM and the inhibition at 20 µM was 8.15 ± 0.06%.
The compound `O=c1cc(-c2ccccc2)oc2c(CN3CCCC3)c(O)cc(O)c12` [Compound 6a, 5,7-Dihydroxy-2-phenyl-8-(pyrrolidin-1-ylmethyl)-4H-chromen-4-one] returned a melting point of 192.9 to 193 °C. Further, in series [1], the IC50 was 51.4 ± 1.68 µM, the Selectivity is listed as 4.45 and the inhibition at 20 µM turned out to be 35.95 ± 0.09%. Also, in series [2], the IC50 stood at 229 ± 4.55 µM and the inhibition at 20 µM was 6.3 ± 0.07%.
Take `O=c1cc(-c2ccccc2)oc2c(CN3CCOCC3)c(O)cc(O)c12` [Compound 6b, 5,7-Dihydroxy-8-(morpholinomethyl)-2-phenyl-4H-chromen-4-one]: the melting point was 217.6 to 219.5 °C. In addition, the inhibition at 20 µM in series [1] turned out to be 34.47 ± 0.12%. Moreover, the inhibition at 20 µM in series [2] was 9.36 ± 0.09%.
Compound `O=c1cc(-c2ccccc2)oc2c(CN3CCSCC3)c(O)cc(O)c12` [Compound 6c, 5,7-Dihydroxy-2-phenyl-8-(thiomorpholinomethyl)-4H-chromen-4-one] registered a melting point of 218.3 to 219.5 °C. For the same compound, in series [1], the inhibition at 20 µM was 34.19 ± 0.1%. The inhibition at 20 µM in series [2] worked out at 9.87 ± 0.09%.
In turn, `CN(C)Cc1c(O)cc(O)c2c(=O)cc(-c3ccccc3)oc12` [Compound 6d, 8-((Dimethylamino)methyl)-5,7-dihydroxy-2-phenyl-4H-chromen-4-one] displayed a melting point of 241.9 to 242.3 °C. The inhibition at 20 µM in series [1] came out at 31.24 ± 0.08%. Also, the inhibition at 20 µM in series [2] was 7.46 ± 0.06%.
The compound `O=c1cc(-c2ccccc2)oc2cc(OCCCCBr)cc(O)c12` [Compound 7d, 7-(4-Bromobutoxy)-5-hydroxy-2-phenyl-4H-chromen-4-one] came in with a melting point of 162.6 to 163.6 °C. Besides, the inhibition at 20 µM in series [1] came to 19.74 ± 0.11%. The inhibition at 20 µM in series [2] was determined as 1.83 ± 0.06%.
The matching figures for `COc1ccc(-c2cc(=O)c3c(O)c(CN4CCN(C)CC4)c(O)cc3o2)cc1` [Compound 9a, 5,7-Dihydroxy-2-(4-methoxyphenyl)-6-((4-methylpiperazin-1-yl)methyl)-4H-chromen-4-one]: 172.3 to 173.4 °C, 26.36 ± 0.09% and 5.43 ± 0.06%.
As to `CCCN(CCC)Cc1c(O)cc2oc(-c3ccc(OC)cc3)cc(=O)c2c1O` [Compound 9b, 6-((Dipropylamino)methyl)-5,7-dihydroxy-2-(4-methoxyphenyl)-4H-chromen-4-one], the melting point lay within 180.6 to 181.3 °C. Moreover, in series [1], the inhibition at 20 µM came out at 30.69 ± 0.1%. Besides, the inhibition at 20 µM in series [2] was determined as 8.55 ± 0.09%.
Take `COc1ccc(-c2cc(=O)c3c(O)c(CN4CCCC4)c(O)c(CN4CCCC4)c3o2)cc1` [Compound 10a, 5,7-Dihydroxy-2-(4-methoxyphenyl)-6,8-bis(pyrrolidin-1-ylmethyl)-4H-chromen-4-one]: the melting point lay in the range of 207.1 to 207.3 °C. The inhibition at 20 µM in series [1] turned out to be 24.07 ± 0.1%. In series [2], the inhibition at 20 µM is 4.68 ± 0.07%.
The matching figures for `COc1ccc(-c2cc(=O)c3c(O)c(CN4CCN(C)CC4)c(O)c(CN4CCN(C)CC4)c3o2)cc1` [Compound 10c, 5,7-Dihydroxy-2-(4-methoxyphenyl)-6,8-bis((4-methylpiperazin-1-yl)methyl)-4H-chromen-4-one]: 161.8 to 161.9 °C, 27.7 ± 0.12% and 8.57 ± 0.09%.
With `COc1ccc(-c2cc(=O)c3c(O)c(CN(C)C)c(O)c(CN(C)C)c3o2)cc1` [Compound 10d, 6,8-Bis((dimethylamino)methyl)-5,7-dihydroxy-2-(4-methoxyphenyl)-4H-chromen-4-one], the melting point fell in the range of 191.6 to 193.7 °C. Besides, the inhibition at 20 µM in series [1] was found to be 35.53 ± 0.08%. For the same compound, the inhibition at 20 µM in series [2] worked out at 2.73 ± 0.08%.
The matching figures for `COc1ccc(-c2cc(=O)c3c(O)cc(OCc4ccccc4)cc3o2)cc1` [Compound 12a, 7-(Benzyloxy)-5-hydroxy-2-(4-methoxyphenyl)-4H-chromen-4-one]: 181.6 to 182.7 °C, 32.38 ± 0.11% and 6 ± 0.04%.
`COc1ccc(-c2cc(=O)c3c(O)cc(OCCBr)cc3o2)cc1` [Compound 12c, 7-(2-Bromoethoxy)-5-hydroxy-2-(4-methoxyphenyl)-4H-chromen-4-one] showed a melting point of 175.2 to 175.7 °C. Besides, in series [1], the IC50 stood at 43.6 ± 1.53 µM and the inhibition at 20 µM was found to be 37.6 ± 0.12%. In addition, the IC50 in series [4] amounted to 131 ± 2.35 µM. The compound also had an IC50 in series [5] of 68.4 ± 0.99 µM. The inhibition at 20 µM in series [2] was found to be 1.43 ± 0.06%.
As to `COc1ccc(-c2cc(=O)c3c(O)cc(OCCCCBr)cc3o2)cc1` [Compound 12d, 7-(4-Bromobutoxy)-5-hydroxy-2-(4-methoxyphenyl)-4H-chromen-4-one], the melting point was 178.9 to 179.8 °C. Moreover, in series [1], the IC50 came out at 51.4 ± 1.56 µM and the inhibition at 20 µM worked out at 36.91 ± 0.08%. The inhibition at 20 µM in series [2] stood at 3.47 ± 0.04%.
As to `CN1CC[C@H](c2c(O)cc(O)c3c(=O)cc(-c4ccccc4Cl)oc23)[C@H](O)C1` [flavopiridol, reference compound], the inhibition at 20 µM worked out at 86.79 ± 0.04% in series [1] and 89.71 ± 0.03% in series [2]. Moreover, the figures for the IC50 in series [4] and in series [5] were 294 ± 3.13 µM and 0.55 ± 0.05 µM, respectively. Besides, the “inhibition rate” value in series [3] is 90.0%.
Take `C=C(C)C(=O)Oc1c(O)c(O)c2c(=O)cc(-c3ccccc3)oc2c1CN1CCN(C)CC1` [pro3o]: in series [6], the IC50 was 1.26 µM.

In general, inhibition refers to the share of the control response that was lost under treatment. As usually defined, the melting point is the temperature, or range, at which the solid turns liquid.
